Laboratory results as given in patent US9751858B2, “3-heteroaroylamino-propionic acid derivatives and their use as pharmaceuticals” (SANOFI, priority 2011, dated 2017).

These compounds were tested against T1, Recombinant human cathepsin A (Homo sapiens, UniProt P10619) (assay: Cathepsin A inhibitory activity). Settings: activated recombinant human cathepsin A 833 ng/ml, Bodipy FL-labeled bradykinin 2 μM, pH 5.5, 15 min room temperature.
T1 construct: Recombinant human cathepsin A (residues 29-480, with a C-terminal 10-His tag); 10-His (C); purchased R&D Systems 1049-SE
T1 sequence (P10619 29-326 limits assumed): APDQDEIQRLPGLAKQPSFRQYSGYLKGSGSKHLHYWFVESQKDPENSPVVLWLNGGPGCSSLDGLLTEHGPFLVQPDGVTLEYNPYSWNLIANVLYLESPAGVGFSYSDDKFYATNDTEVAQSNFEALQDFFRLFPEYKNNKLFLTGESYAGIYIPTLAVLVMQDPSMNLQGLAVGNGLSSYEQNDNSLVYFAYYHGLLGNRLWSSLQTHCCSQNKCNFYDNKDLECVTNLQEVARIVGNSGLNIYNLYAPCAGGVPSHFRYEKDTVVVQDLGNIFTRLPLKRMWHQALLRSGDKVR
T1 sequence (P10619 327-480 limits assumed): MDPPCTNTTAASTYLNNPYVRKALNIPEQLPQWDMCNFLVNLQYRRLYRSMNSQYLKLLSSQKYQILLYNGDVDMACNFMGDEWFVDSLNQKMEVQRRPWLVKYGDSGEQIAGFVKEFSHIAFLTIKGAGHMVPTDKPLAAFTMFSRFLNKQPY
Type: biochemical
Description: a) Cathepsin a Inhibitory Activity
Briefly, cathepsin A was incubated at 10 μg/ml with cathepsin L at 1 μg/ml in activation buffer (25 mM 2-(morpholin-4-yl)-ethanesulfonic acid (MES), pH 6.0, containing 5 mM dithiothreitol (DTT)) for 15 min at 37° C.
The activated cathepsin A was diluted in assay buffer (25 mM MES, pH 5.5, containing 5 mM DTT) and mixed with the test compound (dissolved in assay buffer containing (v/v) 3% DMSO) or, in the control experiments, with the vehicle in a multiple assay plate. After incubation for 15 min at room temperature, as substrate then bradykinin carrying an N-terminal ®Bodipy FL (4,4-difluoro-5,7-dimethyl-4-bora-3a,4a-diaza-s-indacene-3-propionyl) label (JPT Peptide Technologies GmbH; dissolved in assay buffer) was added to the mixture. […] After incubation for 15 min at room temperature the reaction was stopped by the addition of stop buffer (130 mM 2-(4-(2-hydroxy-ethyl)-piperazin-1-yl)-ethanesulfonic acid, pH 7.4, containing (v/v) 0.013%® Triton X-100, 0.13% Coating Reagent 3 (Caliper Life Sciences), 6.5% DMSO and 20 μM ebelactone B (Sigma, # E0886)).
Uncleaved substrate and product were then separated by a microfluidic capillary electrophoresis on a LabChip® 3000 Drug Discovery System (12-Sipper-Chip; Caliper Life Sciences) and quantified by determination of the respective peak areas. Substrate turnover was calculated by dividing product peak area by the sum of substrate and product peak areas, and the enzyme activity and the inhibitory effect of the test compound thus quantified.

Compound | IC50 [µM]
CCn1nc(C(=O)N[C@@H](CC(=O)O)c2ccccc2C)cc1-c1ccccc1 [Example 21, (S)-3-[(1-Ethyl-5-phenyl-1H-pyrazole-3-carbonyl)-amino]-3-o-tolyl-propionic acid] | 0.152
Cc1oc(-c2ccccc2F)nc1C(=O)N[C@@H](CC(=O)O)c1ccccc1 [Example 10, (S)-3-{[2-(2-Fluoro-phenyl)-5-methyl-oxazole-4-carbonyl]-amino}-3-phenyl-propionic acid] | 2.32
O=C(O)C[C@H](NC(=O)c1nc(-c2ccccc2)oc1C(F)(F)F)c1ccc(Cl)cc1Cl [Example 123, (S)-3-(2,4-Dichloro-phenyl)-3-[(2-phenyl-5-trifluoromethyl-oxazole-4-carbonyl)-amino]-propionic acid] | 14.4
Cc1cccc([C@H](CC(=O)O)NC(=O)c2noc(-c3cccc(F)c3F)n2)c1 [Example 39, (S)-3-{[5-(2,3-Difluoro-phenyl)-[1,2,4]oxadiazole-3-carbonyl]-amino}-3-m-tolyl-propionic acid] | 9.37
O=C(O)C[C@H](NC(=O)c1noc(-c2ccccc2F)n1)c1ccccc1F [Example 17, (S)-3-(2-Fluoro-phenyl)-3-{[5-(2-fluoro-phenyl)-[1,2,4]oxadiazole-3-carbonyl]-amino}-propionic acid] | > 10
Cc1ccccc1[C@H](CC(=O)O)NC(=O)c1nn(C)cc1NS(=O)(=O)Cc1ccccc1 [Example 117, (S)-3-[(1-Methyl-4-phenylmethanesulfonylamino-1H-pyrazole-3-carbonyl)-amino]-3-o-tolyl-propionic acid] | > 10
O=C(O)C[C@@H](Cc1ccccc1)NC(=O)c1noc(-c2ccccc2F)n1 [Example 13, (R)-3-{[5-(2-Fluoro-phenyl)-[1,2,4]oxadiazole-3-carbonyl]-amino}-4-phenyl-butyric acid] | 0.316
O=C(O)C[C@H](NC(=O)CCc1nc(-c2ccccc2F)no1)c1ccc(C(F)(F)F)cc1 [Example 111, (S)-3-{3-[3-(2-Fluoro-phenyl)-[1,2,4]oxadiazol-5-yl]-propionylamino}-3-(4-trifluoromethyl-phenyl)-propionic acid] | > 10
CCc1nc(C(=O)N[C@@H](CC(=O)O)c2ccccc2C)nn1-c1c(Cl)cccc1Cl [Example 108, (S)-3-{[1-(2,6-Dichloro-phenyl)-5-ethyl-1H-[1,2,4]triazole-3-carbonyl]-amino}-3-o-tolyl-propionic acid] | 0.35
Cc1ccccc1[C@H](CC(=O)O)NC(=O)c1cc(-c2ccccc2)on1 [Example 2, (S)-3-[(5-Phenyl-isoxazole-3-carbonyl)-amino]-3-o-tolyl-propionic acid] | 6.96
O=C(O)C[C@H](NC(=O)c1noc(-c2ccccc2F)n1)c1ccccc1C(F)(F)F [Example 80, (S)-3-{[5-(2-Fluoro-phenyl)-[1,2,4]oxadiazole-3-carbonyl]-amino}-3-(2-trifluoromethyl-phenyl)-propionic acid] | 11.9
Cc1oc(-c2ccccc2F)nc1C(=O)N[C@@H](CC(=O)O)c1ccc(F)cc1 [Example 37, (S)-3-(4-Fluoro-phenyl)-3-{[2-(2-fluoro-phenyl)-5-methyl-oxazole-4-carbonyl]-amino}-propionic acid] | 4.2
Cc1oc(-c2ccccc2F)nc1C(=O)N[C@@](C)(CC(=O)O)c1ccccc1 [Example 30, (S)-3-{[2-(2-Fluoro-phenyl)-5-methyl-oxazole-4-carbonyl]-amino}-3-phenyl-butyric acid] | > 10
Cc1ccc([C@H](CC(=O)O)NC(=O)CCc2nc(-c3ccccc3F)no2)cc1 [Example 52, (S)-3-{3-[3-(2-Fluoro-phenyl)-[1,2,4]oxadiazol-5-yl]-propionylamino}-3-p-tolyl-propionic acid] | > 10
O=C(O)CC(Cc1ccccc1)NC(=O)c1nc(-c2ccccc2)n(-c2ccccc2)n1 (stereo not shown) [Example 86, 3-[(1,5-Diphenyl-1H-[1,2,4]triazole-3-carbonyl)-amino]-4-phenyl-butyric acid] | 2.23
Cc1oc(-c2ccccc2F)nc1C(=O)N[C@@H](CC(=O)O)c1cccc(Cl)c1 [Example 61, (S)-3-(3-Chloro-phenyl)-3-{[2-(2-fluoro-phenyl)-5-methyl-oxazole-4-carbonyl]-amino}-propionic acid] | 0.189

Compound | IC50 [µM]
Cc1ccccc1[C@H](CC(=O)O)NC(=O)c1nc(-c2ccccc2)oc1C(F)(F)F [Example 77, (S)-3-[(2-Phenyl-5-trifluoromethyl-oxazole-4-carbonyl)-amino]-3-o-tolyl-propionic acid] | 1.91
O=C(O)CC(NC(=O)c1nc(-c2ccccc2)oc1C(F)(F)F)C1CCCCC1 (stereo not shown) [Example 68, 3-Cyclohexyl-3-[(2-phenyl-5-trifluoromethyl-oxazole-4-carbonyl)-amino]-propionic acid] | 14.8
Cc1oc(-c2ccccc2)nc1C(=O)N[C@@H](CC(=O)O)c1cccc(Cl)c1 [Example 28, (S)-3-(3-Chloro-phenyl)-3-[(5-methyl-2-phenyl-oxazole-4-carbonyl)-amino]-propionic acid] | 1.11
O=C(O)C[C@H](NC(=O)c1nc(-c2ccccc2)oc1C(F)(F)F)c1cccc(Cl)c1Cl [Example 122, (S)-3-(2,3-Dichloro-phenyl)-3-[(2-phenyl-5-trifluoromethyl-oxazole-4-carbonyl)-amino]-propionic acid] | 1.95
O=C(O)C[C@H](NC(=O)CCc1nc(-c2ccccc2F)no1)c1ccccc1C(F)(F)F [Example 110, (S)-3-{3-[3-(2-Fluoro-phenyl)-[1,2,4]oxadiazol-5-yl]-propionylamino}-3-(2-trifluoromethyl-phenyl)-propionic acid] | > 10
CCCC1CCCCN1C(=O)c1cc(C(=O)N[C@@H](CC(=O)O)c2ccccc2)nn1CC (stereo partly drawn) [Example 100, (S)-3-{[1-Ethyl-5-(2-propyl-piperidine-1-carbonyl)-1H-pyrazole-3-carbonyl]-amino}-3-phenyl-propionic acid] | 4.75
COc1cccc([C@H](CC(=O)O)NC(=O)c2nc(-c3ccccc3)oc2C(C)C)c1 [Example 65, (S)-3-[(5-Isopropyl-2-phenyl-oxazole-4-carbonyl)-amino]-3-(3-methoxy-phenyl)-propionic acid] | > 10
Cc1oc(-c2ccccc2)nc1C(=O)NC(CC(=O)O)C1CCCCC1 (stereo not shown) [Example 3, 3-Cyclohexyl-3-[(5-methyl-2-phenyl-oxazole-4-carbonyl)-amino]-propionic acid] | 4.97
O=C(O)C[C@H](NC(=O)c1noc(-c2cccc(F)c2F)n1)c1ccccc1 [Example 20, (S)-3-{[5-(2,3-Difluoro-phenyl)-[1,2,4]oxadiazole-3-carbonyl]-amino}-3-phenyl-propionic acid] | 7.35
C[C@@](CC(=O)O)(NC(=O)c1noc(-c2cccc(F)c2F)n1)c1ccccc1 [Example 40, (S)-3-{[5-(2,3-Difluoro-phenyl)-[1,2,4]oxadiazole-3-carbonyl]-amino}-3-phenyl-butyric acid] | 1.94
CCc1nc(C(=O)N[C@@H](CC(=O)O)c2ccc(C)cc2)nn1-c1c(Cl)cccc1Cl [Example 107, (S)-3-{[1-(2,6-Dichloro-phenyl)-5-ethyl-1H-[1,2,4]triazole-3-carbonyl]-amino}-3-p-tolyl-propionic acid] | 0.545
CCCC1CCCCN1C(=O)c1cc(C(=O)N[C@@H](CC(=O)O)c2cccc(C)c2)nn1CC (stereo partly drawn) [Example 116, (S)-3-{[1-Ethyl-5-(2-propyl-piperidine-1-carbonyl)-1H-pyrazole-3-carbonyl]-amino}-3-m-tolyl-propionic acid] | 4.56
Cc1cccc([C@H](CC(=O)O)NC(=O)c2nc(-c3ccccc3F)oc2C)c1 [Example 27, (S)-3-{[2-(2-Fluoro-phenyl)-5-methyl-oxazole-4-carbonyl]-amino}-3-m-tolyl-propionic acid] | 3.49
CC(C)c1oc(-c2ccccc2)nc1C(=O)NC(CC(=O)O)C1CCCCC1 (stereo not shown) [Example 34, 3-Cyclohexyl-3-[(5-isopropyl-2-phenyl-oxazole-4-carbonyl)-amino]-propionic acid] | 1.47
Cc1cccc([C@H](CC(=O)O)NC(=O)CCc2nc(-c3ccccc3F)no2)c1 [Example 50, (S)-3-{3-[3-(2-Fluoro-phenyl)-[1,2,4]oxadiazol-5-yl]-propionylamino}-3-m-tolyl-propionic acid] | > 10
